Source: article PMC11174122 (Molecules, 2024)
Where two headings read alike, the source gives them in different places.

Experiments:
[1] = test system: Bel-7402; experiment: MTT cytotoxic activity assay, Bel-7402; type: cell-based; conditions: Homo sapiens, 48 h
Description: (§1) MCF-7, Hela, and HUCEC were cultured in DMEM (Beijing Solarbio) containing 10% FBS, 100 U/mL penicillin, and […] at 37 °C and 5% CO2. Bel-7402, A549, PC-3M were cultured in RPMI-1640 (Beijing Solarbio) media supplemented with 10% FBS (Wuhan Punuosai Life Science and Technology Co., Ltd., Wuhan, China), 100 U/mL penicillin, and […] at 37 °C and 5% CO2. MTT (Beijing Solarbio) was prepared with PBS at a concentration of 5 mg/mL. All tested drugs were prepared in a solution with a concentration of 20 mM, with dimethyl sulfoxide as the solvent.
(§2) The cells were inoculated into 96-well plates at a density of 5 × 10^3 cells/well. When the cell fusion reached 70–80%, the drug was treated for 48 h. Subsequently, 20 μL MTT was added to each well and incubated at 37 °C with 5% CO2 for 4 h. After that, the medium was discarded and 150 μL DMSO was added to each well. The absorbance was measured at 490 nm with an enzymoleter.

[2] = test system: A549; experiment: MTT cytotoxic activity assay, A549; type: cell-based; conditions: Homo sapiens, 48 h
Description: as §1, §2

[3] = test system: Hela; experiment: MTT cytotoxic activity assay, Hela; type: cell-based, human; conditions: Homo sapiens, HeLa; MTT, 48 h
Description: as §1, §2

[4] = test system: MCF-7; experiment: MTT cytotoxic activity assay, MCF-7; type: cell-based; conditions: Homo sapiens, MCF7, 48 h
Description: as §1, §2

[5] = test system: PC-3M; experiment: MTT cytotoxic activity assay, PC-3M; type: cell-based; conditions: Homo sapiens
Description: as §1, §2

CC(C)C[C@H](NC(=O)OC(C)(C)C)C(=O)Oc1ccc(/C=C/C(=O)c2ccc(OC(=O)[C@H](CC(C)C)NC(=O)OC(C)(C)C)cc2O)cc1 [Compound 1, (E)-4-(3-(4-(((tert-butoxycarbonyl)leucyl)oxy)-2-hydroxyphenyl)-3-oxoprop-1-en-1-yl)phenyl (tert-butoxycarbonyl)leucinate] was tested. Which IC50 [1] did it give?
Its IC50 is over 200 µM.

And the IC50 [2]?
Its IC50 is over 200 µM.

And the IC50 [3]?
The IC50 was over 200 µM.

What about the IC50 [4] of the same compound?
Its IC50 is over 200 µM.

What about the IC50 ([5]; read-out: IC50 PC-3M, 48 h) of the same compound?
The IC50 was over 200 µM.

What does the source list for CCC(C)CC(NC(=O)OC(C)(C)C)C(=O)Oc1ccc(/C=C/C(=O)c2ccc(OC(=O)C(CC(C)CC)NC(=O)OC(C)(C)C)cc2O)cc1 (stereo not shown) [Compound 2, (E)-4-(3-(4-((2-((tert-butoxycarbonyl)amino)-4-methylhexanoyl)oxy)-2-hydroxyphenyl)-3-oxoprop-1-en-1-yl)phenyl 2-((tert-butoxycarbonyl)amino)-4-methylhexanoate]?
IC50 [1]: > 200 µM; IC50 [2]: > 200 µM; IC50 [3]: > 200 µM; IC50 [4]: > 200 µM; IC50 ([5]; read-out: IC50 PC-3M, 48 h): > 200 µM

CC(C)[C@H](NC(=O)OC(C)(C)C)C(=O)Oc1ccc(/C=C/C(=O)c2ccc(OC(=O)[C@@H](NC(=O)OC(C)(C)C)C(C)C)cc2O)cc1 [Compound 3, (E)-4-(3-(4-(((tert-butoxycarbonyl)valyl)oxy)-2-hydroxyphenyl)-3-oxoprop-1-en-1-yl)phenyl (tert-butoxycarbonyl)valinate] was tested. Which IC50 [1] did it give?
The IC50 was over 200 µM.

What about the IC50 [2] of the same compound?
The IC50 was over 200 µM.

What about the IC50 [3] of the same compound?
Its IC50 is over 200 µM.

What about the IC50 [4] of the same compound?
The IC50 was over 200 µM.

And the IC50 ([5]; read-out: IC50 PC-3M, 48 h)?
The IC50 was over 200 µM.

CC(C)(C)OC(=O)N1CCCC1C(=O)Oc1ccc(/C=C/C(=O)c2ccc(OC(=O)[C@@H]3CCCN3C(=O)OC(C)(C)C)cc2O)cc1 (stereo partly shown) [Compound 4, (E)-2-(4-(3-(4-(((tert-butoxycarbonyl)prolyl)oxy)-2-hydroxyphenyl)-3-oxoprop-1-en-1-yl)phenyl) 1-(tert-butyl) pyrrolidine-1,2-dicarboxylate] was tested. Which IC50 [1] did it give?
The IC50 was over 200 µM.

What about the IC50 [2] of the same compound?
The IC50 was over 200 µM.

And the IC50 [3]?
The IC50 was over 200 µM.

And the IC50 [4]?
Its IC50 is over 200 µM.

What about the IC50 ([5]; read-out: IC50 PC-3M, 48 h) of the same compound?
Its IC50 is over 200 µM.

CN(CC(=O)Oc1ccc(/C=C/C(=O)c2ccc(OC(=O)CN(C)C(=O)OC(C)(C)C)cc2O)cc1)C(=O)OC(C)(C)C [Compound 5, (E)-4-(3-(4-((N-(tert-butoxycarbonyl)-N-methylglycyl)oxy)-2-hydroxyphenyl)-3-oxoprop-1-en-1-yl)phenyl N-(tert-butoxycarbonyl)-N-methylglycinate] was tested. Which IC50 [1] did it give?
Its IC50 is over 200 µM.

And the IC50 [2]?
The IC50 was over 200 µM.

And the IC50 [3]?
Its IC50 is over 200 µM.

And the IC50 [4]?
The IC50 was over 200 µM.

What about the IC50 ([5]; read-out: IC50 PC-3M, 48 h) of the same compound?
Its IC50 is over 200 µM.

Which results are given for CC(C)(C)OC(=O)NC(C(=O)Oc1ccc(/C=C/C(=O)c2ccc(OC(=O)C(NC(=O)OC(C)(C)C)C3CCCC3)cc2O)cc1)C1CCCC1 [Compound 6, 4-((E)-3-(4-((S)-2-((tert-butoxycarbonyl)amino)-2-cyclopentylacetoxy)-2-hydroxyphenyl)-3-oxoprop-1-en-1-yl)phenyl(R)-2-((tert-butoxycarbonyl)amino)-2-cyclopentylacetate]?
IC50 [1]: > 200 µM; IC50 [2]: > 200 µM; IC50 [3]: > 200 µM; IC50 [4]: > 200 µM; IC50 ([5]; read-out: IC50 PC-3M, 48 h): > 200 µM

Which results are given for CC(C)(C)OC(=O)NC(C(=O)Oc1ccc(/C=C/C(=O)c2ccc(O)cc2O)cc1)C1CCCC1 [Compound 7, (E)-4-(3-(2,4-dihydroxyphenyl)-3-oxoprop-1-en-1-yl)phenyl(R)-2-((tert-butoxycarbonyl)amino)-2-cyclopentylacetate]?
IC50 [1]: 27.9 µM; IC50 [2]: 27.4 µM; IC50 [3]: 28.7 µM; IC50 [4]: 29.8 µM; IC50 ([5]; read-out: IC50 PC-3M, 48 h): 33.2 µM

Which IC50 [1] does the source give for CC(C)(C)OC(=O)NC(C(=O)Oc1ccc(/C=C/C(=O)c2ccc(OC(=O)C(NC(=O)OC(C)(C)C)C3CCCCC3)cc2O)cc1)C1CCCCC1 [Compound 8, 4-((E)-3-(4-((R)-2-((tert-butoxycarbonyl)amino)-2-cyclohexylacetoxy)-2-hydroxyphenyl)-3-oxoprop-1-en-1-yl)phenyl(S)-2-((tert-butoxycarbonyl)amino)-2-cyclohexylacetate] here?
The IC50 was over 200 µM.

What about the IC50 [2] of the same compound?
Its IC50 is over 200 µM.

What about the IC50 [3] of the same compound?
Its IC50 is over 200 µM.

And the IC50 [4]?
The IC50 was over 200 µM.

What about the IC50 ([5]; read-out: IC50 PC-3M, 48 h) of the same compound?
Its IC50 is over 200 µM.

Which results are given for C[C@H](NC(=O)OC(C)(C)C)C(=O)Oc1ccc(C(=O)/C=C/c2ccc(OC(=O)[C@@H](C)NC(=O)OC(C)(C)C)cc2)c(O)c1 [Compound 10, 4-((E)-3-(4-(((tert-butoxycarbonyl)-D-alanyl)oxy)phenyl)acryloyl)-3-hydroxyphenyl (tert-butoxycarbonyl)-L-alaninate]?
IC50 [1]: > 200 µM; IC50 [2]: > 200 µM; IC50 [3]: > 200 µM; IC50 [4]: > 200 µM; IC50 ([5]; read-out: IC50 PC-3M, 48 h): > 200 µM

CC(NC(=O)OC(C)(C)C)C(=O)Oc1ccc(C=CC(=O)c2ccc(O)cc2O)cc1 [Compound 11, (E)-4-(3-(2,4-dihydroxyphenyl)-3-oxoprop-1-en-1-yl)phenyl(tert-butoxycarbonyl)-D-alaninate] was tested. Which IC50 [1] did it give?
Its IC50 is 87.6 µM.

What about the IC50 [2] of the same compound?
Its IC50 is 100 µM.

And the IC50 [3]?
Its IC50 is 99.9 µM.

And the IC50 [4]?
Its IC50 is 160 µM.

What about the IC50 ([5]; read-out: IC50 PC-3M, 48 h) of the same compound?
The IC50 was 122 µM.

How did the IC50 [1] turn out when CC(C)(C)OC(=O)NC(CCc1ccccc1)C(=O)Oc1ccc(C(=O)/C=C/c2ccc(OC(=O)[C@H](CCc3ccccc3)NC(=O)OC(C)(C)C)cc2)c(O)c1 (stereo partly drawn) [Compound 12, 4-((E)-3-(4-((2-((tert-butoxycarbonyl)amino)-4-phenylbutanoyl)oxy)-2-hydroxyphenyl)-3-oxoprop-1-en-1-yl)phenyl(2S)-2-((tert-butoxycarbonyl)amino)-4-phenylbutanoate] was run?
The IC50 was over 200 µM.

What about the IC50 [2] of the same compound?
Its IC50 is over 200 µM.

What about the IC50 [3] of the same compound?
The IC50 was over 200 µM.

What about the IC50 [4] of the same compound?
Its IC50 is over 200 µM.

What about the IC50 ([5]; read-out: IC50 PC-3M, 48 h) of the same compound?
Its IC50 is over 200 µM.

Which results are given for CC(C)(C)OC(=O)N[C@@H](CCc1ccccc1)C(=O)Oc1ccc(/C=C/C(=O)c2ccc(O)cc2O)cc1 [Compound 13, (E)-4-(3-(2,4-dihydroxyphenyl)-3-oxoprop-1-en-1-yl)phenyl(S)-2-((tert-butoxycarbonyl)amino)-4-phenylbutanoate]?
IC50 [1]: 35.3 µM; IC50 [2]: 48.9 µM; IC50 [3]: 29.2 µM; IC50 [4]: 60.5 µM; IC50 ([5]; read-out: IC50 PC-3M, 48 h): 37.4 µM

Which results are given for CC(C)(C)OC(=O)N[C@@H](Cc1ccccc1Br)C(=O)Oc1ccc(C(=O)/C=C/c2ccc(OC(=O)[C@@H](Cc3ccccc3Br)NC(=O)OC(C)(C)C)cc2)c(O)c1 [Compound 14, 4-((E)-3-(4-(((S)-3-(2-bromophenyl)-2-((tert-butoxycarbonyl)amino)propanoyl)oxy)-2-hydroxyphenyl)-3-oxoprop-1-en-1-yl)phenyl(R)-3-(2-bromophenyl)-2-((tert-butoxycarbonyl)amino)propanoate]?
IC50 [1]: > 200 µM; IC50 [2]: > 200 µM; IC50 [3]: > 200 µM; IC50 [4]: > 200 µM; IC50 ([5]; read-out: IC50 PC-3M, 48 h): > 200 µM

How did the IC50 [1] turn out when CC(C)(C)OC(=O)N[C@H](Cc1ccccc1Br)C(=O)Oc1ccc(/C=C/C(=O)c2ccc(O)cc2O)cc1 [Compound 15, (E)-4-(3-(2,4-dihydroxyphenyl)-3-oxoprop-1-en-1-yl)phenyl(R)-3-(2-bromophenyl)-2-((tert-butoxycarbonyl)amino)propanoate] was run?
Its IC50 is 38.4 µM.

What about the IC50 [2] of the same compound?
Its IC50 is 42.6 µM.

What about the IC50 [3] of the same compound?
The IC50 was 27.4 µM.

What about the IC50 [4] of the same compound?
Its IC50 is 50.9 µM.

And the IC50 ([5]; read-out: IC50 PC-3M, 48 h)?
The IC50 was 30.2 µM.

Which results are given for CC(C)(C)OC(=O)N[C@@H](Cc1ccccc1Cl)C(=O)Oc1ccc(C(=O)/C=C/c2ccc(OC(=O)[C@@H](Cc3ccccc3Cl)NC(=O)OC(C)(C)C)cc2)c(O)c1 [Compound 16, 4-((E)-3-(4-(((S)-2-((tert-butoxycarbonyl)amino)-3-(2-chlorophenyl)propanoyl)oxy)-2-hydroxyphenyl)-3-oxoprop-1-en-1-yl)phenyl(R)-2-((tert-butoxycarbonyl)amino)-3-(2-chlorophenyl)propanoate]?
IC50 [1]: > 200 µM; IC50 [2]: > 200 µM; IC50 [3]: > 200 µM; IC50 [4]: > 200 µM; IC50 ([5]; read-out: IC50 PC-3M, 48 h): > 200 µM

With CC(C)(C)OC(=O)N[C@H](Cc1ccccc1Cl)C(=O)Oc1ccc(/C=C/C(=O)c2ccc(O)cc2O)cc1 [Compound 17, (E)-4-(3-(2,4-dihydroxyphenyl)-3-oxoprop-1-en-1-yl)phenyl(R)-2-((tert-butoxycarbonyl)amino)-3-(2-chlorophenyl)propanoate] as the compound, how does the IC50 [1] read?
The IC50 was 33.2 µM.

And the IC50 [2]?
The IC50 was 40.7 µM.

What about the IC50 [3] of the same compound?
Its IC50 is 30.4 µM.

And the IC50 [4]?
The IC50 was 60.2 µM.

What about the IC50 ([5]; read-out: IC50 PC-3M (text), 48 h) of the same compound?
The IC50 was 37.4 µM.

And the IC50 ([5]; read-out: IC50 PC-3M, 48 h)?
Its IC50 is 38.1 µM.

How did the IC50 [1] turn out when CC(C)(C)OC(=O)NC(C(=O)Oc1ccc(/C=C/C(=O)c2ccc(OC(=O)C(NC(=O)OC(C)(C)C)c3ccccc3)cc2O)cc1)c1ccccc1 [Compound 18, 4-((E)-3-(4-((S)-2-((tert-butoxycarbonyl)amino)-2-phenylacetoxy)-2-hydroxyphenyl)-3-oxoprop-1-en-1-yl)phenyl(R)-2-((tert-butoxycarbonyl)amino)-2-phenylacetate] was run?
Its IC50 is over 200 µM.

And the IC50 [2]?
The IC50 was over 200 µM.

And the IC50 [3]?
The IC50 was over 200 µM.

And the IC50 [4]?
Its IC50 is over 200 µM.

And the IC50 ([5]; read-out: IC50 PC-3M, 48 h)?
The IC50 was over 200 µM.

Which IC50 [1] does the source give for CC(C)(C)OC(=O)NC(C(=O)Oc1ccc(/C=C/C(=O)c2ccc(O)cc2O)cc1)c1ccccc1 [Compound 19, (E)-4-(3-(2,4-dihydroxyphenyl)-3-oxoprop-1-en-1-yl)phenyl(R)-2-((tert-butoxycarbonyl)amino)-2-phenylacetate] here?
The IC50 was 66.9 µM.

What about the IC50 [2] of the same compound?
The IC50 was 93.8 µM.

And the IC50 [3]?
The IC50 was 74.9 µM.

And the IC50 [4]?
Its IC50 is 153 µM.

And the IC50 ([5]; read-out: IC50 PC-3M, 48 h)?
Its IC50 is 108 µM.
